Patent US11931351B2, “(S)-3-[1-methylpyrrolidin-2-yl]pyridine, analogues thereof, precursors thereof, or its derivatives, for the use as a pharmaceutical in form of a parenteral administration and a process for the preparation of an injectable substance” (priority 2019, dated 2024)
In brackets after ≈: the same amount, converted by molar mass.

Legend:
H1N1 virus = conditions: 0,002 mg/kg each 24 hours; 24 hours after treatment; versus control group
A549 cells [1] = test: cells; conditions: Homo sapiens, A549, 96 h, read-out: concentration that inhibits 50% of the proliferation
[2] = after 72 h treatment, n=10 per group; compared to antimicrobians/antimycotics (group B) and no treatment (group C)
IL-6 production = conditions: human PBLs; 1 mg/ml, 500 μg/ml, 300 μg/ml
in vitro [3] = conditions: human, A549 cells (lung adenocarcinoma epithelial cell line)
Protocol: (§1) In a further example cytotoxicity tests were performed with three different cell lines (FIG. 2a, 2b, 2c): • WI-38 (human diploid cell line from normal embryonic lung tissue) • A549 (human lung adenocarcinoma epithelial cell line) and • HS683 (human neuronal glioma cell line).
(§2) Thereby, cell viability was determined on the basis of the mitochondria-dependent reduction of MTT (3-[4,5-dimethyltiazol 2yl]-2,5-diphenyltetrazolium bromide) to formazan. […] Next cells were treated with 20 μl of MTT. After 3 hours of incubation at 37° C., the formazan blue formed in the cells was dissolved in 100 μl of SDS (sodium dodecylsulfate) for 3 hours in 37° C. The optical density was measured at 570 nm.
(§3) After the cytotoxicity tests LC50 (LC50-lethal concentration, 50%-dose required to kill half of the cells after a specified test duration) were estimated for each cell lines and PBLs (leukocytes of peripheral blood).

[4] = background statement; cited from earlier work
HS-683 cells [5] = conditions: HS-683, 96 hours incubation, MTT
in vitro [6] = conditions: human, HS683 cells (neuronal glioma cell line)
Protocol: as §1, §2, §3

[7] = background statement; cited from earlier work; remark: listed apart in the source
A549 cells [8] = conditions: A549, 96 hours incubation, MTT
[9] = tested on: human PBLs (leukocytes of peripheral blood); conditions: MTT, 48 hours
Protocol: as §2
(§4) After the cytotoxicity tests LC50 (LC50-lethal concentration, 50%-dose required to kill half of the cells after a specified test duration) were estimated for each cell lines and PBLs (leukocytes of peripheral blood). Additionally for PBLs LC10 and LC5 were calculated.
(§5) On the basis of the results of MTT assay for human leukocytes the LC50, LC10 and LC5 were evaluated.

in vitro [10] = conditions: human, peripheral blood leukocytes (PBLs)
Protocol: as §2, §4, §5

in vitro [11] = conditions: human, WI-38 cells (normal embryonic lung diploid cell line)
Protocol: as §1, §2, §3

HS-683 cells [12] = test: cells; conditions: Homo sapiens, Hs 683, 96 h, read-out: concentration that inhibits 50% of the proliferation
WI-38, A549 and HS 683 = test: cells; conditions: Homo sapiens, read-out: doses that inhibit 50% of cell proliferation (summary)
WI-38 cells [13] = conditions: WI-38, 96 hours incubation, MTT
WI-38 cells [14] = test: cells; conditions: Homo sapiens, WI-38, 96 h, read-out: concentration that inhibits 50% of the proliferation

## CN1CCC[C@H]1c1cccnc1 [(S)-3-[1-Methylpyrrolidin-2-yl]pyridine]
H1N1 virus
  egg production of H1N1 infected chicken: began to lay off eggs
A549 cells [1]
  IC50: 2000 µg/mL (≈ 12.3 mM)
[2]
  healing effect on ulcer: increased healing effect
IL-6 production
  effect on IL-6 production: no effect
In vitro [3]
  CC50 at 48 h: 4500 µg/mL (≈ 27.7 mM)
[4]
  miscibility with water: miscible with water
  solubility in alcohol, ether or light petroleum: readily soluble
HS-683 cells [5]
  concentration that inhibits 99% of the proliferation: 5.5 mg/mL
In vitro [6]
  CC50 at 48 h: 3500 µg/mL (≈ 21.6 mM)
[7]
  half-life in the body: approximately two
A549 cells [8]
  concentration that inhibits 99% of the proliferation: 5.5 mg/mL
[9]
  LC5: 0.5 mg/mL
  LC10: 1000 µg/mL (≈ 6.16 mM)
In vitro [10]
  CC50 at 48 h: 7000 µg/mL (≈ 43.1 mM)
In vitro [11]
  CC50 at 48 h: 3000 µg/mL (≈ 18.5 mM)
HS-683 cells [12]
  IC50: 2900 µg/mL (≈ 17.9 mM)
WI-38, A549 and HS 683
  IC50: > 1000 µg/mL
WI-38 cells [13]
  concentration that inhibits 99% of the proliferation: 4.5 mg/mL
WI-38 cells [14]
  IC50: 1000 µg/mL (≈ 6.16 mM)
